Where two headings read alike, the source gives them in different places. Positions of bridges follow the written chain, without caps; N, C: chain ends. Residues, ends and D or L forms follow the SMILES beside them.
Assays:
Assay in all cases: cell-based
[1] = molecular target: hNav1.7 (Homo sapiens, UniProt Q15858); assay type: cell-based
[2] = molecular target: hNav1.5 (Homo sapiens, UniProt Q14524)
[3] = molecular target: hNav1.3 (Homo sapiens, UniProt Q9NY46); settings: IonWorks Quattro, read-out: IWQ Use Nav1.3
[4] = IonWorks Quattro, Use, read-out: IWQ Use Nav1.5

Chain of hNav1.3 (Q9NY46 whole entry, looked up): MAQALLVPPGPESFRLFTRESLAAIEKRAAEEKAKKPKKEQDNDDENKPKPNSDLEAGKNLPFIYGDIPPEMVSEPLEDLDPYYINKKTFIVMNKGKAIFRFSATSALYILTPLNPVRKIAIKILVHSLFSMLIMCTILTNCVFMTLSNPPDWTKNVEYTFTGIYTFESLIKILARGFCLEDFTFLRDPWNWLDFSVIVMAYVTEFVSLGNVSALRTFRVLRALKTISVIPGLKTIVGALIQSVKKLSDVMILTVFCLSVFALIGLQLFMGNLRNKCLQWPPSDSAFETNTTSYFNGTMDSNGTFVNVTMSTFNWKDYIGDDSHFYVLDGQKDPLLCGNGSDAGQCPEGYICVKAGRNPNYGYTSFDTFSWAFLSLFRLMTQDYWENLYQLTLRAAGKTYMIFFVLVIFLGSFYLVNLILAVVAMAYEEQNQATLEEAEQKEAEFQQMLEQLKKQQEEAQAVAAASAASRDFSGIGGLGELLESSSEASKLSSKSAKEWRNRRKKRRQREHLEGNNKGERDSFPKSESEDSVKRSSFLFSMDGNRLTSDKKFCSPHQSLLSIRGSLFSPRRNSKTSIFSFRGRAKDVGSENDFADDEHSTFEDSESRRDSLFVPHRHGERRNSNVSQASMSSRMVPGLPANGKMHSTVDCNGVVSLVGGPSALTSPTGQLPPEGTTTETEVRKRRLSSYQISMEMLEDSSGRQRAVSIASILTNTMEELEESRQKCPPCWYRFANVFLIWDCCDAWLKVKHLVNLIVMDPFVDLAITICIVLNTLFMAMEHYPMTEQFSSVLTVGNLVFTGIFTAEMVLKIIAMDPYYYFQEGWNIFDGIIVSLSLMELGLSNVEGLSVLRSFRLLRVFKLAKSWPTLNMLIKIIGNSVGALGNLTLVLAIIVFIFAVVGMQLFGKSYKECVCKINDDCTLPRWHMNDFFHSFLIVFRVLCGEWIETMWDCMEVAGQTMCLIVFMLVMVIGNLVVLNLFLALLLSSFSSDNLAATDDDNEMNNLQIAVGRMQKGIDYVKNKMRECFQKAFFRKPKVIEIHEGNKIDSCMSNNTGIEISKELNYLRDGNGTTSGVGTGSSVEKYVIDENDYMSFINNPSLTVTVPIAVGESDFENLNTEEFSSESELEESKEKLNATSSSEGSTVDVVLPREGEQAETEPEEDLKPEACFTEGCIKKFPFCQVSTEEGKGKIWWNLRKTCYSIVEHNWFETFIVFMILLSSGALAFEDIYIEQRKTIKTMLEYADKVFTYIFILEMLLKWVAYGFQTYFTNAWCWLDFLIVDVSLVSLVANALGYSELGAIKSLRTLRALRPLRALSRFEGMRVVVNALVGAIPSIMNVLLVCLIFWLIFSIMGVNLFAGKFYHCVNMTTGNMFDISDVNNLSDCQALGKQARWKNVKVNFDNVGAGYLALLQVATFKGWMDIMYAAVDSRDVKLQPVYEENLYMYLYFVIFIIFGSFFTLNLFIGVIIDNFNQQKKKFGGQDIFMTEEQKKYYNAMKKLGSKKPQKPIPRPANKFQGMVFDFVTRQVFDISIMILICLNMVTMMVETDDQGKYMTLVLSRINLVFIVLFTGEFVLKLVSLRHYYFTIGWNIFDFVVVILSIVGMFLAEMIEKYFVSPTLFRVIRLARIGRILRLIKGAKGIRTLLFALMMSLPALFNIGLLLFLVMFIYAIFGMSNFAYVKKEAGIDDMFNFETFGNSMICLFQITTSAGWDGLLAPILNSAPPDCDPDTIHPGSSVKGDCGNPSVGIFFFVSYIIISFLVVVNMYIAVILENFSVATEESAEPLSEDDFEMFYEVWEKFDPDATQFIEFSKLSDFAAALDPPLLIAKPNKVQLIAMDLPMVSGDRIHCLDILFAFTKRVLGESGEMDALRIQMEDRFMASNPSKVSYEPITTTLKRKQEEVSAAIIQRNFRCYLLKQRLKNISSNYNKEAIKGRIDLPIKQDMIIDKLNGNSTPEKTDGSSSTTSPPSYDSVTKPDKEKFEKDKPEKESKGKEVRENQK
Chain of hNav1.7 (Q15858 whole entry, looked up): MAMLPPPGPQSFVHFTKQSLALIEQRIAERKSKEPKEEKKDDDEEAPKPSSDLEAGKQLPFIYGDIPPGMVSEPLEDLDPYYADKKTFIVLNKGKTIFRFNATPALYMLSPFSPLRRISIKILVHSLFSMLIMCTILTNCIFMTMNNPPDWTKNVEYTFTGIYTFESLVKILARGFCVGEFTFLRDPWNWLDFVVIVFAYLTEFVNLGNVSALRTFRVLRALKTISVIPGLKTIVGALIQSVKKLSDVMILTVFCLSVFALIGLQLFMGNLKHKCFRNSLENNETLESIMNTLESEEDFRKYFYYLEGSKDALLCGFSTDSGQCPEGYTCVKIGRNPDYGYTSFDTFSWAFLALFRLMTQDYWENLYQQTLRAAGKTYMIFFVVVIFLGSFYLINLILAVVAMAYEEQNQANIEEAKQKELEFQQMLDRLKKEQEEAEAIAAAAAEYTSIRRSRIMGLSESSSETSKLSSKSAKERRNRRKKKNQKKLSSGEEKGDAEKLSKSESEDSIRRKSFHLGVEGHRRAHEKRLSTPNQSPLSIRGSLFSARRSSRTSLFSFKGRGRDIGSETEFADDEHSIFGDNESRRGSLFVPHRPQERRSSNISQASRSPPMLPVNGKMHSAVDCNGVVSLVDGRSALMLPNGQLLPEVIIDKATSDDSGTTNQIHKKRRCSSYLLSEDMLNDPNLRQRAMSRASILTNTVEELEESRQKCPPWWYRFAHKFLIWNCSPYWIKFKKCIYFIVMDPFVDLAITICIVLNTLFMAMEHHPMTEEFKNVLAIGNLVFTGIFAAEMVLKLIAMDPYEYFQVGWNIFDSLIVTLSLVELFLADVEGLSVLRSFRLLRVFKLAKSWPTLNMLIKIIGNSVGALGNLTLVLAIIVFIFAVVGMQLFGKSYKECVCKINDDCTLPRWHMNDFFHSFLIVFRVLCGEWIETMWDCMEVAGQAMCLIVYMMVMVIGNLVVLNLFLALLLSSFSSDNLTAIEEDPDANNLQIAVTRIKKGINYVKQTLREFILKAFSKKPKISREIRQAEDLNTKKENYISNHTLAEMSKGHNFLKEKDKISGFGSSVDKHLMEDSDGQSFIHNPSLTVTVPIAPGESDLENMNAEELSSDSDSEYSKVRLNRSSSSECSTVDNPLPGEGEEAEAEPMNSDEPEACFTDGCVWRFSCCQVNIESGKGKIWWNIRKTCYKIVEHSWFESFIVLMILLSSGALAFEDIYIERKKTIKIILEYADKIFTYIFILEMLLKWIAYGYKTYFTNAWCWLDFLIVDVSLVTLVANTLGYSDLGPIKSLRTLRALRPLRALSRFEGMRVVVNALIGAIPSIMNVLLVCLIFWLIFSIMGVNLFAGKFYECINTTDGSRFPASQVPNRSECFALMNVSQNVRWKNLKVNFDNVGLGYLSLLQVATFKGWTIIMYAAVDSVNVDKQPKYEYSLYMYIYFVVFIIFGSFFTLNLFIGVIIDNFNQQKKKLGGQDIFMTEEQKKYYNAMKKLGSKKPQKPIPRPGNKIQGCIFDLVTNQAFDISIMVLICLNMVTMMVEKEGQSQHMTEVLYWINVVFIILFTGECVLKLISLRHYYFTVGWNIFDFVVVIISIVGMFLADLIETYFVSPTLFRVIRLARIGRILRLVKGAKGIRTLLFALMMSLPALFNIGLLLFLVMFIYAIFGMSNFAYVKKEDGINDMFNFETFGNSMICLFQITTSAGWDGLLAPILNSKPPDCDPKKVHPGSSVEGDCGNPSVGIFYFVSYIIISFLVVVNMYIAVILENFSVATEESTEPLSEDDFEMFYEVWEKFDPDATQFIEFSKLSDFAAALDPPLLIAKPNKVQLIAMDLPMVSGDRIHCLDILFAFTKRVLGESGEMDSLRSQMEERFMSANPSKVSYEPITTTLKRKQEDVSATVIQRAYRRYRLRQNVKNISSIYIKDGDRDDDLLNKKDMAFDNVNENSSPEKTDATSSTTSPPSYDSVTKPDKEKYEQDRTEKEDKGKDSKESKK

CC[C@H](C)[C@@H]1NC(=O)[C@@H]2CSSC[C@@H]3NC(=O)[C@H](C(C)C)NC(=O)[C@H](CC(C)C)NC(=O)[C@H](CC(N)=O)NC(=O)[C@@H]4CCCN4C(=O)[C@H](CCCNC(=N)N)NC(=O)[C@H](CSSC[C@H](NC(=O)[C@@H](N)CC(=O)O)C(=O)N[C@@H](CC(C)C)C(=O)NCC(=O)N[C@@H](Cc4ccccc4)C(=O)N[C@@H](CCSC)C(=O)N[C@@H](CCCNC(=N)N)C(=O)N[C@@H](CCCCN)C(=O)N2)NC(=O)[C@H](CSSC[C@@H](C(=O)N[C@@H](CCCCN)C(=O)N[C@@H](Cc2ccc(O)cc2)C(=O)N[C@H](C(=O)N[C@@H](Cc2ccccc2)C(N)=O)C(C)C)NC(=O)[C@H](Cc2c[nH]c4ccccc24)NC(=O)[C@H](CCCCN)NC(=O)[C@H](Cc2cnc[nH]2)NC(=O)[C@H]([C@@H](C)O)NC(=O)[C@H](CCCNC(=N)N)NC(=O)[C@H](CO)NC3=O)NC(=O)[C@H](CCCCN)NC(=O)[C@H](CC(=O)O)NC(=O)[C@H](CCC(=O)O)NC(=O)[C@H](CC(=O)O)NC(=O)[C@@H]2CCCN2C1=O [compound 27] (H-DCLGFMRKCIPDEDKCCRPNLVCSRTHKWCKYVF-NH2; disulfide 2-17, 9-23, 16-30)
IC50 ([1]; IonWorks Quattro, Use, read-out: IWQ Use Nav1.7): 0.26 µM
IC50 [2, 4]: 9.38 µM
IC50 ([3]; Use): 0.22 µM

CC[C@H](C)[C@@H]1NC(=O)[C@@H]2CSSC[C@@H]3NC(=O)[C@H](C(C)C)NC(=O)[C@H](CC(C)C)NC(=O)[C@H](CC(N)=O)NC(=O)[C@@H]4CCCN4C(=O)[C@H](CCCNC(=N)N)NC(=O)[C@H](CSSC[C@H](NC(=O)[C@@H](N)CC(=O)O)C(=O)N[C@@H](CC(C)C)C(=O)NCC(=O)N[C@@H](Cc4ccccc4)C(=O)N[C@@H](CCSC)C(=O)N[C@@H](CCCNC(=N)N)C(=O)N[C@@H](CCCCN)C(=O)N2)NC(=O)[C@H](CSSC[C@@H](C(=O)N[C@@H](CCCCN)C(=O)N[C@@H](Cc2ccc(O)cc2)C(=O)N[C@H](C(=O)N[C@@H](Cc2ccccc2)C(N)=O)C(C)C)NC(=O)[C@H](Cc2c[nH]c4ccccc24)NC(=O)[C@H](CCCCN)NC(=O)[C@H](Cc2c[nH]cn2)NC(=O)[C@H]([C@@H](C)O)NC(=O)[C@H](CCCNC(=N)N)NC(=O)[C@H](CO)NC3=O)NC(=O)[C@H](CCC(=O)O)NC(=O)[C@H](CC(=O)O)NC(=O)[C@H](CC(N)=O)NC(=O)[C@H](CC(=O)O)NC(=O)[C@@H]2CCCN2C1=O [compound 28] (H-DCLGFMRKCIPDNDECCRPNLVCSRTHKWCKYVF-NH2; disulfide 2-17, 9-23, 16-30)
IC50 [1]: 0.59 µM
IC50 [2, 4]: 12.1 µM
IC50 ([3]; Use): 0.49 µM

CC[C@H](C)[C@@H]1NC(=O)[C@@H]2CSSC[C@@H]3NC(=O)[C@H](C(C)C)NC(=O)[C@H](CC(C)C)NC(=O)[C@H](CC(N)=O)NC(=O)[C@@H]4CCCN4C(=O)[C@H](CCCNC(=N)N)NC(=O)[C@H](CSSC[C@H](NC(=O)[C@@H](N)CC(=O)O)C(=O)N[C@@H](CC(C)C)C(=O)NCC(=O)N[C@@H](Cc4ccccc4)C(=O)N[C@@H](CCSC)C(=O)N[C@@H](CCCNC(=N)N)C(=O)N[C@@H](CCCCN)C(=O)N2)NC(=O)[C@H](CSSC[C@@H](C(=O)N[C@@H](CCCCN)C(=O)N[C@@H](Cc2ccc(O)cc2)C(=O)N[C@H](C(=O)N[C@@H](Cc2ccccc2)C(N)=O)C(C)C)NC(=O)[C@H](Cc2c[nH]c4ccccc24)NC(=O)[C@H](CCCCN)NC(=O)[C@H](CCC(=O)O)NC(=O)[C@H]([C@@H](C)O)NC(=O)[C@H](CCCNC(=N)N)NC(=O)[C@H](CO)NC3=O)NC(=O)[C@H](CCCCN)NC(=O)[C@H](CC(=O)O)NC(=O)[C@H](CC(N)=O)NC(=O)[C@H](CC(=O)O)NC(=O)[C@@H]2CCCN2C1=O [compound 29] (H-DCLGFMRKCIPDNDKCCRPNLVCSRTEKWCKYVF-NH2; disulfide 2-17, 9-23, 16-30)
IC50 ([1]; Table 23, IonWorks Quattro, use, […], read-out: IWQ Use Nav1.7): 8.54 µM
IC50 ([2]; Table 23, IonWorks Quattro, use, […], read-out: IWQ Use Nav1.5): 15.2 µM
IC50 ([3]; Table 23, use, […]): 12.3 µM

CC[C@H](C)[C@@H]1NC(=O)[C@@H]2CSSC[C@@H]3NC(=O)[C@H](C(C)C)NC(=O)[C@H](CC(C)C)NC(=O)[C@H](CC(N)=O)NC(=O)[C@@H]4CCCN4C(=O)[C@H](CCCNC(=N)N)NC(=O)[C@H](CSSC[C@H](NC(=O)[C@@H](N)CC(=O)O)C(=O)N[C@@H](CC(C)C)C(=O)NCC(=O)N[C@@H](Cc4ccccc4)C(=O)N[C@@H](CCSC)C(=O)N[C@@H](CCCNC(=N)N)C(=O)N[C@@H](CCCCN)C(=O)N2)NC(=O)[C@H](CSSC[C@@H](C(=O)N[C@@H](CCC(=O)O)C(=O)N[C@@H](Cc2ccc(O)cc2)C(=O)N[C@H](C(=O)N[C@@H](Cc2ccccc2)C(N)=O)C(C)C)NC(=O)[C@H](Cc2c[nH]c4ccccc24)NC(=O)[C@H](CCCCN)NC(=O)[C@H](Cc2cnc[nH]2)NC(=O)[C@H]([C@@H](C)O)NC(=O)[C@H](CCCNC(=N)N)NC(=O)[C@H](CO)NC3=O)NC(=O)[C@H](CCCCN)NC(=O)[C@H](CC(=O)O)NC(=O)[C@H](CC(N)=O)NC(=O)[C@H](CC(=O)O)NC(=O)[C@@H]2CCCN2C1=O [compound 31] (H-DCLGFMRKCIPDNDKCCRPNLVCSRTHKWCEYVF-NH2; disulfide 2-17, 9-23, 16-30)
IC50 ([1]; Table 25, IonWorks Quattro, use, […], read-out: IWQ Use Nav1.7): 23 µM
IC50 ([2]; Table 25, IonWorks Quattro, use, […], read-out: IWQ Use Nav1.5): 21.7 µM
IC50 ([3]; Table 25, use, […]): 13.1 µM

CC[C@H](C)[C@@H]1NC(=O)[C@@H]2CSSC[C@@H]3NC(=O)[C@H](C(C)C)NC(=O)[C@H](CC(C)C)NC(=O)[C@H](CC(N)=O)NC(=O)[C@@H]4CCCN4C(=O)[C@H](CCCNC(=N)N)NC(=O)[C@H](CSSC[C@H](NC(=O)[C@@H](N)CC(=O)O)C(=O)N[C@@H](CC(C)C)C(=O)NCC(=O)N[C@@H](Cc4ccccc4)C(=O)N[C@@H](CCSC)C(=O)N[C@@H](CCCNC(=N)N)C(=O)N[C@@H](CCCCN)C(=O)N2)NC(=O)[C@H](CSSC[C@@H](C(=O)N[C@@H](CCCCN)C(=O)N[C@@H](Cc2ccc(O)cc2)C(=O)N[C@H](C(=O)N[C@@H](CCC(=O)O)C(N)=O)C(C)C)NC(=O)[C@H](Cc2c[nH]c4ccccc24)NC(=O)[C@H](CCCCN)NC(=O)[C@H](Cc2cnc[nH]2)NC(=O)[C@H]([C@@H](C)O)NC(=O)[C@H](CCCNC(=N)N)NC(=O)[C@H](CO)NC3=O)NC(=O)[C@H](CCCCN)NC(=O)[C@H](CC(=O)O)NC(=O)[C@H](CC(N)=O)NC(=O)[C@H](CC(=O)O)NC(=O)[C@@H]2CCCN2C1=O [compound 34] (H-DCLGFMRKCIPDNDKCCRPNLVCSRTHKWCKYVE-NH2; disulfide 2-17, 9-23, 16-30)
IC50 ([1]; IonWorks Quattro, use-dependent, […], read-out: IWQ Use Nav1.7): 17 µM
IC50 ([2]; IWQ Use Nav1.5 (μM)): 16.8 µM
IC50 ([3]; use-dependent, […]): 11.2 µM

CC[C@H](C)[C@@H]1NC(=O)[C@@H]2CSSC[C@@H]3NC(=O)[C@H](C(C)C)NC(=O)[C@H](CC(C)C)NC(=O)[C@H](CC(N)=O)NC(=O)[C@@H]4CCCN4C(=O)[C@H](CCCNC(=N)N)NC(=O)[C@H](CSSC[C@H](NC(=O)[C@@H](N)CC(=O)O)C(=O)N[C@@H](CC(C)C)C(=O)NCC(=O)N[C@@H](Cc4ccccc4)C(=O)N[C@@H](CCSC)C(=O)N[C@@H](CCCNC(=N)N)C(=O)N[C@@H](CCCCN)C(=O)N2)NC(=O)[C@H](CSSC[C@@H](C(=O)N[C@@H](CCCCN)C(=O)N[C@@H](Cc2ccc(O)cc2)C(=O)N[C@H](C(=O)N[C@@H](Cc2ccccc2)C(=O)N[C@@H](CCC(=O)O)C(N)=O)C(C)C)NC(=O)[C@H](Cc2c[nH]c4ccccc24)NC(=O)[C@H](CCCCN)NC(=O)[C@H](Cc2c[nH]cn2)NC(=O)[C@H]([C@@H](C)O)NC(=O)[C@H](CCCNC(=N)N)NC(=O)[C@H](CO)NC3=O)NC(=O)[C@H](CCCCN)NC(=O)[C@H](CC(=O)O)NC(=O)[C@H](CC(N)=O)NC(=O)[C@H](CC(=O)O)NC(=O)[C@@H]2CCCN2C1=O [compound 35]
IC50 ([1]; IonWorks Quattro, use-dependent, […], read-out: IWQ Use Nav1.7 (μm)): 4.47 µM
IC50 ([2]; IWQ Use Nav1.5 (μM)): 19.6 µM
IC50 ([3]; use-dependent, […]): 2.47 µM
